From ChEMBL document CHEMBL1137974, “1- and 2-substituted naphthalenes: a new class of potential hypotensive agents” (2004)
Calls of active or inactive are those of the source. The calls are words filed in the database; no cut-off is given here.

What was measured:
[1] = system: Felis catus; assay: Duration of hypotensive activity in cat following i.v. administration of 1 mg/kg; format: functional; conditions: route intravenous
[2] = system: Felis catus; assay: Hypotensive activity in cat following i.v. administration of 1 mg/kg expressed as fall in blood pressure; format: functional; conditions: route intravenous
[3] = system: Felis catus; assay: Hypotensive activity in cat following i.v. administration of 5 mg/kg expressed as fall in blood pressure; D denotes death; format: functional, organism-based; parameters: dose 5 mg/kg
[4] = system: Felis catus; assay: Hypotensive activity in cat following i.v. administration of 5 mg/kg expressed as fall in blood pressure; NA denotes not active; format: functional, organism-based; parameters: dose 5 mg/kg; conditions: at 5 mg/kg
[5] = system: Felis catus; assay: Duration of hypotensive activity in cat following i.v. administration of 5 mg/kg; format: functional; conditions: route intravenous
[6] = system: Felis catus; assay: Hypotensive activity in cat following i.v. administration of 5 mg/kg expressed as fall in blood pressure; format: functional; conditions: route intravenous
[7] = system: Felis catus; assay: Hypotensive activity in cat following i.v. administration of 1 mg/kg expressed as fall in blood pressure; NA denotes not active; format: functional, organism-based; parameters: dose 1 mg/kg; conditions: for Max effect: at 1 mg/kg

Structure (SMILES)	Duration [1] [min]	Decrease in blood pressure [2] [mmHg]	Max effect [2] [%]	Decrease in blood pressure [3]	Max effect [4]	Duration [5] [min]	Decrease in blood pressure [6] [mmHg]	Max effect [6] [%]	Decrease in blood pressure [7]	Max effect [7]
CN1CCN(COc2ccc3ccccc3c2)CC1	2	18	21	Death	inactive					
O=C(O)C(CCOc1cccc2ccccc12)CN1CCOCC1 (stereo not given)	2	18	17			2	16	17		
CN1CCN(CC(CCOc2cccc3ccccc23)C(=O)O)CC1 (stereo not given)	2	18	17			4	34	38		
O=C(O)C(CCOc1cccc2ccccc12)CN1CCNCC1 (stereo not given)	12	12	7			7	25	19		
c1ccc2cc(OCN3CCOCC3)ccc2c1						>35	50	41	inactive	inactive
c1ccc2cc(OCN3CCCC3)ccc2c1	10	12	7			16	30	19		
CC(C)NCC(O)COc1cccc2ccccc12 (stereo not given) [PROPRANOLOL]	40	46	35			>60	50	41		
c1ccc(N2CCN(COc3ccc4ccccc4c3)CC2)cc1	16	40	50			120	60	75		
c1ccc2cc(OCN3CCCCC3)ccc2c1	2	20	21			17	44	52		
O=C(O)C(CCOc1cccc2ccccc12)CN1CCCCC1 (stereo not given)	16	30	19			50	40	47		
O=C(O)C(CCOc1cccc2ccccc12)CN1CCN(c2ccccc2)CC1 (stereo not given)	2	20	14			7	50	40		
c1ccc2cc(OCN3CCNCC3)ccc2c1						2	10	7	inactive	inactive
O=C(O)C(CCOc1cccc2ccccc12)CN1CCCC1 (stereo not given)	2	10	8			30	20	17		
